Data from ChEMBL document CHEMBL3351764, “Design, synthesis and biological activity of flavonoid derivatives as selective agonists for neuromedin U 2 receptor” (Bioorg Med Chem, 2014).
Calls of active or inactive are those of the source.

Legend:
[1] = biological target: Melanocyte-stimulating hormone receptor (Homo sapiens) (UniProt Q01726); assay: Agonist activity at human MC1 receptor at 100 uM to 5 mM
[2] = biological target: Melanocortin receptor 4 (Homo sapiens) (UniProt P32245); assay: Agonist activity at human MC4 receptor at 100 uM to 5 mM
[3] = biological target: Melanocyte-stimulating hormone receptor (Mus musculus) (UniProt Q01727); assay: Agonist activity at mouse MC1 receptor at 100 uM to 5 mM
[4] = biological target: Adrenocorticotropic hormone receptor (Mus musculus) (UniProt Q64326); assay: Agonist activity at mouse MC2 receptor at 100 uM to 5 mM
[5] = biological target: T1, 5-hydroxytryptamine receptor 2C (Homo sapiens) (UniProt P28335); assay: Agonist activity at human 5HT2C receptor at 100 uM to 5 mM
T1 sequence (whole entry): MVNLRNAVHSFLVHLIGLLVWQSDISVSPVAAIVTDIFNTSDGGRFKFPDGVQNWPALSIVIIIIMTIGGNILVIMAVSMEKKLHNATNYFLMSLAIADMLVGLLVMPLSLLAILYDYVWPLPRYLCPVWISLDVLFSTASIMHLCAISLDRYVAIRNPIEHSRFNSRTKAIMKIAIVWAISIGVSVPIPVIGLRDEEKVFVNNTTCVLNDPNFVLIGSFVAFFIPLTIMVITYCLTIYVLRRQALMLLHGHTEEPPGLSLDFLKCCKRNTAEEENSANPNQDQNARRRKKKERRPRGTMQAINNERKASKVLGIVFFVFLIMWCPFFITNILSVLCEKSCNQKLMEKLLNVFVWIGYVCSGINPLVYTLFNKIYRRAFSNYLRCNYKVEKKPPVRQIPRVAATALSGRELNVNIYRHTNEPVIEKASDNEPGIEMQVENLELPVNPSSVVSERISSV

[6] = biological target: T2, Orexin receptor type 2 (Homo sapiens) (UniProt O43614); assay: Agonist activity at human orexin 2 receptor at 100 uM to 5 mM
T2 sequence (whole entry): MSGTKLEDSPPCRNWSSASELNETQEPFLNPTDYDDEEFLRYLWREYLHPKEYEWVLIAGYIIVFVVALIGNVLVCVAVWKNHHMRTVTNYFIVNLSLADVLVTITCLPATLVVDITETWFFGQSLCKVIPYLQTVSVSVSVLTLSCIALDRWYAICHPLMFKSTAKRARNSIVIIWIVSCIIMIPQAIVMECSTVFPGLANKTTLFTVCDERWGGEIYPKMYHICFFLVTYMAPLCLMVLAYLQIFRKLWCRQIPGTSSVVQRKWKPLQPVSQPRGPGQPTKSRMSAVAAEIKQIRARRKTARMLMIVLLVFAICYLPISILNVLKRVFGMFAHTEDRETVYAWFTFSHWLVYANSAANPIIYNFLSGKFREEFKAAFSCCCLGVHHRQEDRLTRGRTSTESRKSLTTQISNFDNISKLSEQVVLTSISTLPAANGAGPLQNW

[7] = biological target: Melanin-concentrating hormone receptor 1 (Homo sapiens) (UniProt Q99705); assay: Agonist activity at human MCH1 receptor at 100 uM to 5 mM
[8] = biological target: T3, Muscarinic acetylcholine receptor M1 (Homo sapiens) (UniProt P11229); assay: Agonist activity at human M1 receptor at 100 uM to 5 mM
T3 sequence (whole entry): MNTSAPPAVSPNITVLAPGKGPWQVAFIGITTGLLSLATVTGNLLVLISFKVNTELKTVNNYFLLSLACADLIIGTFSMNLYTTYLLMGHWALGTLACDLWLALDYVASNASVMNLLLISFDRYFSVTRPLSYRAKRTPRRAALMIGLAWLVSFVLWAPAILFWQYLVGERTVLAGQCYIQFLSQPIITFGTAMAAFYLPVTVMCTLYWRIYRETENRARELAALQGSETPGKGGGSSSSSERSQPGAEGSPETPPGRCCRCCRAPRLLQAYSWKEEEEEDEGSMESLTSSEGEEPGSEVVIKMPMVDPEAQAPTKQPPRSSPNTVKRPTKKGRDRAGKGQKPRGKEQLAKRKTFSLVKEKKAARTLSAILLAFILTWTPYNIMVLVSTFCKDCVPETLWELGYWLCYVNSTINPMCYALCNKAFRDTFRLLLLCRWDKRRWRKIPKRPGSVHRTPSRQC

[9] = biological target: T4, Parathyroid hormone/parathyroid hormone-related peptide receptor (Homo sapiens) (UniProt Q03431); assay: Agonist activity at human PTH receptor at 100 uM to 5 mM
T4 sequence (whole entry): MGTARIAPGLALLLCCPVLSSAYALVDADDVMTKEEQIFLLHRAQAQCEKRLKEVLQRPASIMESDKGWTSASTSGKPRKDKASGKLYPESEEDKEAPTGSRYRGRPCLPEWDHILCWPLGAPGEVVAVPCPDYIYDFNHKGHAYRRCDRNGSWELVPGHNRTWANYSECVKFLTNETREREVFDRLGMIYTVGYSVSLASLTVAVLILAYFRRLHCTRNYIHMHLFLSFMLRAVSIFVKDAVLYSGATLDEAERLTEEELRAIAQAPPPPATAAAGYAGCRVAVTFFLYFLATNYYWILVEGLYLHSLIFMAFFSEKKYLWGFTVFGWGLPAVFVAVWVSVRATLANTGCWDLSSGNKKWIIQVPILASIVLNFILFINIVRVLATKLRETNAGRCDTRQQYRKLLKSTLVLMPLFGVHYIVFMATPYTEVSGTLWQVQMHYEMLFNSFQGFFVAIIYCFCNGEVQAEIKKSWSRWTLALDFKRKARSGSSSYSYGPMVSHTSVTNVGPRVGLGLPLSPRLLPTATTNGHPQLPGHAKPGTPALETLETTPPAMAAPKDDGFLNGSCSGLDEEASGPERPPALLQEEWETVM

Measured: Activity

Sequence of Melanocortin receptor 4 (Homo sapiens) (P32245 whole entry): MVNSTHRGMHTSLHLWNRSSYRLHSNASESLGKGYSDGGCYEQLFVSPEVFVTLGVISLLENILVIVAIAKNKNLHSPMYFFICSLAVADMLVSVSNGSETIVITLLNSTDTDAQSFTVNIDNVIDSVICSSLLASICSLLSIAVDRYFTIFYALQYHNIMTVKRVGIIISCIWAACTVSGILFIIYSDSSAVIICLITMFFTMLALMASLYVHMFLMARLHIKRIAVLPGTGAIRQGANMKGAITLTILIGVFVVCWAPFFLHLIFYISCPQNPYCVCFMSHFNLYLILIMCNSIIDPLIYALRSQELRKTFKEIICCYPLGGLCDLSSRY
Sequence of Melanocyte-stimulating hormone receptor (Mus musculus) (Q01727 whole entry, looked up): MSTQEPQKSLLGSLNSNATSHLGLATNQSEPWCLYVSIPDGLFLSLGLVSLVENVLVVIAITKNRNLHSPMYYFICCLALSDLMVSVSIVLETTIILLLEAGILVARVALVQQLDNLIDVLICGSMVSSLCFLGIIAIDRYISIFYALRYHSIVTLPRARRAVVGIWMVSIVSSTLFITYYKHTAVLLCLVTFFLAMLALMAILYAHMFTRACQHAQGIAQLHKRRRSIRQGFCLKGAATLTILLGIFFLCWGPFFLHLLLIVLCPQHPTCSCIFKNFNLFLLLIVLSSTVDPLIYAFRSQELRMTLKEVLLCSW
Sequence of Adrenocorticotropic hormone receptor (Mus musculus) (Q64326 whole entry): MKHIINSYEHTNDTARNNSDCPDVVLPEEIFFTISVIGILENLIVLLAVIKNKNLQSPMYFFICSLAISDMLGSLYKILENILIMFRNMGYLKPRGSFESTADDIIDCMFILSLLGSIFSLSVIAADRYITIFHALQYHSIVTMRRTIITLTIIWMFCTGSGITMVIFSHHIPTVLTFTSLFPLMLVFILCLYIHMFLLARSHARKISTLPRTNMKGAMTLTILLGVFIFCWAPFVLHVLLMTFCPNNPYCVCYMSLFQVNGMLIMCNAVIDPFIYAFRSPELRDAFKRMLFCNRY
Sequence of Melanin-concentrating hormone receptor 1 (Homo sapiens) (Q99705 whole entry): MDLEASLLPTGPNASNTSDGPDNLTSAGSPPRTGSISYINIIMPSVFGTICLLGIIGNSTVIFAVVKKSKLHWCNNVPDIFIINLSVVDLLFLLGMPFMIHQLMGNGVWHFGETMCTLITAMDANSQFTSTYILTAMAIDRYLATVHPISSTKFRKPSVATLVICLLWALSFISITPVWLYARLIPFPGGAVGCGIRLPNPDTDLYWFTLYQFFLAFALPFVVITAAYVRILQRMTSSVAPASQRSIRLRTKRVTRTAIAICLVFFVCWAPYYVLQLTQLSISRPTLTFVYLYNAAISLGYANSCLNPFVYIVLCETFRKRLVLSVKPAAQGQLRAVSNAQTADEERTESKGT
Sequence of Melanocyte-stimulating hormone receptor (Homo sapiens) (Q01726 whole entry, looked up): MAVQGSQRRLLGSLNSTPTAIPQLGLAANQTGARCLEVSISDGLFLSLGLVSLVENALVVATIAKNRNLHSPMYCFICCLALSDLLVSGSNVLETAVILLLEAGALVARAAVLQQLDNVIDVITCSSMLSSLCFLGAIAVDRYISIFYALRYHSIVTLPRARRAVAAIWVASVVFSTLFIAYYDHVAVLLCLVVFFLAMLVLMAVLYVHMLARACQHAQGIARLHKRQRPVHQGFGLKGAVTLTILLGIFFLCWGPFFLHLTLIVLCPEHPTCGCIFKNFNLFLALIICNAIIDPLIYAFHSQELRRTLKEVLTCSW

O=c1c(O)c(-c2cccc(Cl)c2F)oc2ccccc12
inactive: all assays above

COc1cc(-c2oc3ccccc3c(=O)c2O)ccc1O
inactive: all assays above

O=c1c(O)c(-c2c(F)cccc2Cl)oc2ccccc12
inactive: all assays above

O=c1cc(-c2ccc(Cl)cc2Cl)oc2ccccc12
inactive: all assays above

Fc1ccccc1C1C=Cc2ccccc2O1 (racemic)
inactive: all assays above

COc1cccc(-c2oc3ccccc3c(=O)c2O)c1
inactive: all assays above

O=c1c(OCCO)c(-c2cc(Br)ccc2F)oc2ccccc12
inactive: all assays above

O=c1c(O)c(-c2cccc(Cl)c2)oc2ccccc12
inactive: all assays above

Clc1ccc(C2C=Cc3ccccc3O2)c(Cl)c1 (racemic)
inactive: all assays above

O=c1cc(-c2ccccc2F)oc2ccccc12
inactive: all assays above

COc1ccc(-c2oc3ccccc3c(=O)c2O)cc1O
inactive: all assays above

COc1ccc(F)c(-c2oc3ccccc3c(=O)c2O)c1
inactive: all assays above
